Numbers after ± are expanded uncertainties.
Assay: wn = mass fraction of the nth substance listed
Settings: Liquid, Vibrating tube method

OCCNCCO [diethanolamine] + O
mass density [kg/m3]
Settings	w1 = 0.5	w1 = 0.6	w1 = 0.7	w1 = 0.8
293.15 K, 101 kPa	1060.7 ± 3.5	1073.1 ± 3.5	1082.5 ± 3.4	1089.6 ± 3.4
303.15 K, 101 kPa	1055.5 ± 3.5	1067.4 ± 3.5	1076.5 ± 3.4	1083.6 ± 3.4
313.15 K, 101 kPa	1050 ± 3.5	1061.4 ± 3.5	1070.3 ± 3.4	1077.4 ± 3.4
323.15 K, 101 kPa	1044.1 ± 3.5	1055.2 ± 3.5	1064 ± 3.4	1070.9 ± 3.4
333.15 K, 101 kPa	1037.9 ± 3.5	1048.6 ± 3.5	1057.3 ± 3.4	1064.2 ± 3.4
343.15 K, 101 kPa	1031.4 ± 3.5	1041.9 ± 3.5	1050.5 ± 3.4	1057.4 ± 3.4
353.15 K, 101 kPa	1024.51 ± 3.5	1034.7 ± 3.5	1043.5 ± 3.4	1050.5 ± 3.4
363.15 K, 101 kPa	1017.38 ± 3.5	1027.3 ± 3.5	1036.1 ± 3.4	1043.1 ± 3.4
373.15 K, 800 kPa	1010.04 ± 3.5	1020 ± 3.5	1028.87 ± 3.4	1035.98 ± 3.4
383.15 K, 800 kPa	1002.15 ± 3.5	1012.14 ± 3.5	1020.89 ± 3.4	1028.08 ± 3.4
393.15 K, 800 kPa	994.94 ± 3.5	1003.87 ± 3.4	1012.73 ± 3.4	1020.14 ± 3.4
403.15 K, 800 kPa	985.63 ± 3.5	995.45 ± 3.5	1004.18 ± 3.4	1012.1 ± 3.4
413.15 K, 800 kPa	976.68 ± 3.5	986.55 ± 3.5	995.42 ± 3.4	1003.23 ± 3.4
423.15 K, 800 kPa	967.44 ± 3.5	977.38 ± 3.5	986.45 ± 3.4	995.43 ± 3.4
